pIC50: −log10 of the molar value. In brackets after ≈: the same amount, converted by molar mass. Activity calls are given as the source filed them. No cut-off for these calls is given here.
Columns and labels:
Isocitrate lyase = Isocitrate lyase (Candida albicans, UniProt Q9P8Q7); experiment: Inhibition of Candida albicans ATCC 10231 isocitrate lyase
Candida albicans [1] = experiment: Antifungal activity against Candida albicans SC5314 in YNB broth containing 2% glucose as sole carbon source after 72 hrs by broth dilution assay; assay type: functional; details: SC5314, 72 h
Candida albicans [2] = experiment: Antifungal activity against Candida albicans ATCC 10231 in YNB broth containing 2% glucose as sole carbon source after 72 hrs by broth dilution assay; assay type: functional; details: ATCC 10231, 72 h
Candida albicans [3] = experiment: Antifungal activity against Candida albicans ATCC 10259 in YNB broth containing 2% glucose as sole carbon source after 72 hrs by broth dilution assay; assay type: functional; details: ATCC 10259, 72 h
Candida albicans [4] = experiment: Antifungal activity against Candida albicans ATCC 11006 in YNB broth containing 2% glucose as sole carbon source after 72 hrs by broth dilution assay; assay type: functional; details: ATCC 11006, 72 h
Candida albicans [5] = experiment: Antifungal activity against Candida albicans ATCC 18804 in YNB broth containing 2% glucose as sole carbon source after 72 hrs by broth dilution assay; assay type: functional; details: ATCC 18804, 72 h
Candida albicans [6] = experiment: Antifungal activity against Candida albicans SC5314 in YNB broth containing 2% potassium acetate as sole carbon source after 72 hrs by broth dilution assay; assay type: functional; details: SC5314, 72 h
Candida albicans [7] = experiment: Antifungal activity against Candida albicans ATCC 10231 in YNB broth containing 2% potassium acetate as sole carbon source after 72 hrs by broth dilution assay; assay type: functional; details: ATCC 10231, 72 h
Candida albicans [8] = experiment: Antifungal activity against Candida albicans ATCC 10259 in YNB broth containing 2% potassium acetate as sole carbon source after 72 hrs by broth dilution assay; assay type: functional; details: ATCC 10259, 72 h
Candida albicans [9] = experiment: Antifungal activity against Candida albicans ATCC 11006 in YNB broth containing 2% potassium acetate as sole carbon source after 72 hrs by broth dilution assay; assay type: functional; details: ATCC 11006, 72 h
Candida albicans [10] = experiment: Antifungal activity against Candida albicans ATCC 18804 in YNB broth containing 2% potassium acetate as sole carbon source after 72 hrs by broth dilution assay; assay type: functional; details: ATCC 18804, 72 h
Candida albicans [11] = experiment: Antifungal activity against Candida albicans SC5314 in YNB broth containing 2% glucose as sole carbon source at 3.12 ug/mL after 72 hrs by broth dilution assay; assay type: functional, organism-based
Candida albicans [12] = experiment: Antifungal activity against Candida albicans MRC10 (deltaicl) in YNB broth containing 2% potassium acetate as sole carbon source at 3.12 ug/mL after 72 hrs by broth dilution assay; assay type: functional, organism-based
Candida albicans [13] = experiment: Antifungal activity against Candida albicans Candida albicans MRC11 (deltaicl + ICL) in YNB broth containing 2% potassium acetate as sole carbon source at 3.12 ug/mL after 72 hrs by broth dilution assay; assay type: functional, organism-based
Candida albicans [14] = experiment: Inhibition of ICL mRNA expression in Candida albicans SC5314 in YNB broth containing 2% potassium acetate as sole carbon source at 3.12 ug/mL after 48 hrs by real time RT-PCR method; assay type: functional
Candida albicans [15] = experiment: Inhibition of ICL mRNA expression in Candida albicans MRC10 (deltaicl) in YNB broth containing 2% potassium acetate as sole carbon source at 3.12 ug/mL after 48 hrs by real time RT-PCR method; assay type: functional, organism-based
Candida albicans [16] = experiment: Inhibition of ICL mRNA expression in Candida albicans MRC11 (deltaicl + ICL) in YNB broth containing 2% potassium acetate as sole carbon source at 3.12 ug/mL after 48 hrs by real time RT-PCR method; assay type: functional, organism-based

Chain of Isocitrate lyase (Q9P8Q7 whole entry): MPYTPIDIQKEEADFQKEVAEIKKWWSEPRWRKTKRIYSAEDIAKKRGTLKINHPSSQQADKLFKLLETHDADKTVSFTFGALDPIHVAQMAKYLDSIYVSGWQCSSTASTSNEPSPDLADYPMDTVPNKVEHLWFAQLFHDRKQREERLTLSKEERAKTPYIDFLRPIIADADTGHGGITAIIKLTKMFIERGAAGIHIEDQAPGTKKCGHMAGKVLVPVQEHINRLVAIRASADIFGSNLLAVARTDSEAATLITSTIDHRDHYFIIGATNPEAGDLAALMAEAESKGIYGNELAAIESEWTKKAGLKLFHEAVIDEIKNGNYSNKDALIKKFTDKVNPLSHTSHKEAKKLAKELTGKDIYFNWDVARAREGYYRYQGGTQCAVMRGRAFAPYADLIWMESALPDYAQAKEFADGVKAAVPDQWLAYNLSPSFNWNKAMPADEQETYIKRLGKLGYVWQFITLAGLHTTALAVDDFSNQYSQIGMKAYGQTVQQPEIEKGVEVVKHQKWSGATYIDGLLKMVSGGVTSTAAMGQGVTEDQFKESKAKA

O=C(O)CC[N+](=O)[O-]
pIC50 (Isocitrate lyase): 4.76

C[C@@H]1[C@H](O)[C@@H](C)/C=C/C=C/C=C/C=C/C=C/C=C/C=C/[C@H](O[C@@H]2O[C@H](C)[C@@H](O)[C@H](N)[C@@H]2O)C[C@@H]2O[C@](O)(C[C@@H](O)C[C@@H](O)[C@H](O)CC[C@@H](O)C[C@@H](O)CC(=O)O[C@H]1C)C[C@H](O)[C@H]2C(=O)O [AMPHOTERICIN B]
MIC (Candida albicans [1]): 1.56 µg/mL (≈ 1.69 µM)
MIC (Candida albicans [2]): 1.56 µg/mL (≈ 1.69 µM)
MIC (Candida albicans [3]): 3.12 µg/mL (≈ 3.38 µM)
MIC (Candida albicans [4]): 1.56 µg/mL (≈ 1.69 µM)
MIC (Candida albicans [5]): 1.56 µg/mL (≈ 1.69 µM)
MIC (Candida albicans [6]): 0.39 µg/mL (≈ 0.422 µM)
MIC (Candida albicans [7]): 0.78 µg/mL (≈ 0.844 µM)
MIC (Candida albicans [8]): 1.56 µg/mL (≈ 1.69 µM)
MIC (Candida albicans [9]): 0.78 µg/mL (≈ 0.844 µM)
MIC (Candida albicans [10]): 0.78 µg/mL (≈ 0.844 µM)

CC(C)[C@@H]1OC(=O)/C=C/C=C/C=C/C=C/C=C/C=C/C[C@@H](O)C[C@H](O)C[C@H](O)C[C@H](O)C[C@@H](O)C[C@H](O)C[C@@H](O)C[C@@H](O)C[C@@H](O)CC[C@@H]1C [BAHAMAOLIDE A]
pIC50 (Isocitrate lyase): 4.93
MIC (Candida albicans [1]): 25 µg/mL (≈ 35.3 µM)
MIC (Candida albicans [2]): 25 µg/mL (≈ 35.3 µM)
MIC (Candida albicans [3]): 25 µg/mL (≈ 35.3 µM)
MIC (Candida albicans [4]): 12.5 µg/mL (≈ 17.6 µM)
MIC (Candida albicans [5]): 25 µg/mL (≈ 35.3 µM)
MIC (Candida albicans [6]): 3.12 µg/mL (≈ 4.4 µM)
MIC (Candida albicans [7]): 3.12 µg/mL (≈ 4.4 µM)
MIC (Candida albicans [8]): 3.12 µg/mL (≈ 4.4 µM)
MIC (Candida albicans [9]): 1.56 µg/mL (≈ 2.2 µM)
MIC (Candida albicans [10]): 3.12 µg/mL (≈ 4.4 µM)
growth inhibition (GI) (Candida albicans [11]): inactive
growth inhibition (GI) (Candida albicans [12]): Active
growth inhibition (GI) (Candida albicans [13]): Active
fold change (FC) (Candida albicans [14]): 5
inhibition (Candida albicans [15]): Active
inhibition (Candida albicans [16]): Active
